Results reported in patent EP4471048A1, “PEPTIDE INHIBITORS OF INTERLEUKIN-23 RECEPTOR” (Zealand Pharma A/S, priority 2023, dated 2024).
*1 amine or outer side, *2 acyl side, *3 side chain or, on linkers, in order; H or OH if unused. Where a SMILES comes first, the peptide text is derived from it. Bridges are numbered along the chain shown (N, C = ends). [ ]: non-standard residue; d: D form. The star is where a group is joined. X23 = O=C(CCCCCc1cccnc1)N[C@@H](CCN[*:2])C(=O)[*:1]; NH(4-(3-pyridyl)butyl) = c1cncc(CCCCN*)c1; Phe(4-Me) = Cc1ccc(C[C@H](N)C(=O)O)cc1; 2Nal = N[C@@H](Cc1ccc2ccccc2c1)C(=O)O; AEF = NCCOc1ccc(C[C@H](N)C(=O)O)cc1; αMeL = CC(C)C[C@](C)(N)C(=O)O

Molecular target: T1, human IL-23R (Homo sapiens, UniProt Q5VWK5)
T1 sequence (Q5VWK5 22-629): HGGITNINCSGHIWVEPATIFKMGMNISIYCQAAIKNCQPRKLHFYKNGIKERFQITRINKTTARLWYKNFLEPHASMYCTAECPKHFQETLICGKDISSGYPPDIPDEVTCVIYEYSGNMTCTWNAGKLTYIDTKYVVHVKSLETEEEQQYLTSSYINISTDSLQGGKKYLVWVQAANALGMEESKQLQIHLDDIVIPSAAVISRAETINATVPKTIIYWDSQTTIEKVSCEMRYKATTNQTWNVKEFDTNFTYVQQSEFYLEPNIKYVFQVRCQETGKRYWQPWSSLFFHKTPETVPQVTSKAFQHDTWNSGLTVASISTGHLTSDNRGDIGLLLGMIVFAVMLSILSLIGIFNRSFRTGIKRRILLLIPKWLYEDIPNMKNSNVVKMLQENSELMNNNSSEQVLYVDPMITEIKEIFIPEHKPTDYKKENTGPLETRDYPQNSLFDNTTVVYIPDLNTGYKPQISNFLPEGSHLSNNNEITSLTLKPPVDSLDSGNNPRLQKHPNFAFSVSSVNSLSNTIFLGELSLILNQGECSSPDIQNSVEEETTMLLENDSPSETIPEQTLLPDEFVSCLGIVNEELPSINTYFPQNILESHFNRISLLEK
Assay: biochemical
Details: for Emax: read-out: % displacement (hIL-23R NIuc)
Source text: The compound binding affinity for IL-23R was estimated by the ability of compounds to displace a fluorophore-labelled reference compound from the human IL-23R. The assay principle relies on Bioluminescence Resonance Energy Transfer (BRET) between a fluorophore-labelled reference compound binding to the IL-23R part of a fusion protein consisting of the IL-23R fused to a Nanoluc luciferase enzyme (Nanoluc). The Nanoluc is placed in the N-terminus in close proximity to the binding domain of the ligand. Upon close proximity between the fluorophore of the fluorophore-labelled compound and the Nanoluc of the fusion protein, bioluminescence energy generated from conversion of a Nanoluc substrate, is transferred to the fluorophore resulting in an increase in BRET. In presence of an unlabelled compound, the unlabelled compound displaces the fluorophore-labelled peptide from its binding site resulting in a decrease in BRET. The concentration for which half of the fluorophore-labelled peptide is displaced by the unlabelled compound depends on the affinity of the compound for the IL-23R, and is termed the IC50 concentration.
The plasmid also contained a gene to confer resistance for the antibiotic hygromycin. A cell line stably expressing the Nluc-IL23R fusion protein was generated by transfection of HEK293 cells with the expression plasmid and selected with hygromycin for 3 weeks in Growth medium consisting of DMEM w/ Glutamax-I containing, 10% V/V FBS, 1% V/V P/S, 1 mM Sodium Pyruvate, and 1X NEAA, and 0.3 mg/mL hygromycin. The remaining cells were propagated and considered a stable expressing Nluc-IL23R fusion protein pool clone.
Cells expressing the Nluc-IL23R fusion protein were expanded in Growth medium and membranes prepared by homogenization of a cell pellet from 18 T175 flasks (4 °C in subsequent steps). The cell pellet was lysed Tris 10 mM, 7.5, 1 mM EDTA and protease inhibitors (Complete, Roche) and homogenized using a 15 mL glass-dounce by 50 strokes. The homogenate was spun at spin @1500 rpm for 10 min, the supernatant transferred to SV-34 tubes and spun at 40000g for 20 min at 4 °C to pellet the crude membranes. The supernatant was then removed, the pellet resuspended in 5 mL buffer containing 50 mM HEPES pH 7.4, 5 mM EGTA, and 5 mM MgCl2, and homogenized. Aliquots of the resuspended and homogenized membranes containing the Nluc-IL23R fusion protein were stored at -80 °C until use.
The plate was sealed with light impermeable plate seals, and incubated on an orbital shaker 400 rpm for 2 hours at room temperature. To determine the BRET ratio, the plate seal was removed and 25 µL of the Nanoluc substrate (Promega N1572) diluted 1:500 was added to each well and incubated for 1-2 minutes on an orbital shaker at 400 rpm. […] The BRET ratio was calculated as the fluorescence from the TAMRA/nanoluc bioluminescence.
Compound potency (IC50) and maximal displacement (% displacement) were estimated by computer-aided curve fitting using a 4-parameter logistic (4PL) non-linear model. […]
In this application, the inventors provide the data as IC50 values.

SMILES | % displacement (hIL-23R NIuc) | IC50 | Emax
CC[C@H](C)[C@@H]1NC(=O)[C@@H]2CCCCNC(=O)CC[C@@H](C(=O)N[C@@H](CCN)C(=O)N[C@H](Cc3cccnc3)C(N)=O)NC(=O)[C@](C)(C(C)C)NC(=O)[C@H](Cc3ccc4ccccc4c3)NC(=O)[C@H](Cc3ccc(C)cc3)NC(=O)[C@H](CCC(=O)N2)NC(=O)[C@H](CCC(N)=O)NC(=O)[C@H](Cc2c[nH]c3ccccc23)NC(=O)[C@H](C(C)C)NC1=O [Compound 18, K(1c)(6c)^†IVWQE(6c)[F(4-Me)][2-Nal][2-Me-Val]E(1c)[Dab][{d}3-(3-Pyridyl)-Ala]-[NH2]] | 100% | 8.5 nM | –
CC[C@H](C)[C@@H]1NC(=O)[C@@H]2CCCCNC(=O)CC[C@@H](C(=O)NCC(=O)N[C@H](Cc3cccnc3)C(N)=O)NC(=O)[C@](C)(C(C)C)NC(=O)[C@H](Cc3ccc4ccccc4c3)NC(=O)[C@H](CC3CC3)NC(=O)[C@H](CCC(=O)N2)NC(=O)[C@H](CCC(N)=O)NC(=O)[C@H](Cc2c[nH]c3ccccc23)NC(=O)[C@H](C(C)C)NC1=O [Compound 20, K(1c)(6c)^†IVWQE(6c)[Cyclopropyl-Ala][2-Nal][2-Me-Val]E(1c)G[{d}3-(3-Pyridyl)-Ala]-[NH2]] | 108% | 150 nM | –
CC[C@H](C)[C@@H]1NC(=O)[C@@H]2CCCCNC(=O)CC[C@@H](C(=O)NCC(=O)N[C@H](Cc3cccnc3)C(N)=O)NC(=O)[C@](C)(C(C)C)NC(=O)[C@H](Cc3ccc4ccccc4c3)NC(=O)[C@](C)(Cc3ccccc3)NC(=O)[C@H](CCC(=O)N2)NC(=O)[C@H](CCC(N)=O)NC(=O)[C@H](Cc2c[nH]c3ccccc23)NC(=O)[C@H](C(C)C)NC1=O [Compound 21, K(1c)(6c)^†IVWQE(6c)[2-Me-Phe][2-Nal][2-Me-Val]E(1c)G[{d}3-(3-Pyridyl)-Ala]-[NH2]] | 101% | 1000 nM | –
CC[C@H](C)[C@@H]1NC(=O)[C@@H]2CCCCNC(=O)CC[C@@H](C(=O)NCC(=O)N[C@H](Cc3cccnc3)C(N)=O)NC(=O)[C@](C)(C(C)C)NC(=O)[C@H](Cc3ccc4ccccc4c3)NC(=O)[C@@H](Cc3ccccc3)NC(=O)[C@H](CCC(=O)N2)NC(=O)[C@H](CCC(N)=O)NC(=O)[C@H](Cc2c[nH]c3ccccc23)NC(=O)[C@H](C(C)C)NC1=O [Compound 22, K(1c)(6c)^†IVWQE(6c)[{d}F][2-Nal][2-Me-Val]E(1c)G[{d}3-(3-Pyridyl)-Ala]-[NH2]] | – | 980 nM | 86%
CC[C@H](C)[C@@H]1NC(=O)[C@@H]2CCCCNC(=O)CC[C@@H](C(=O)NCC(=O)N[C@H](Cc3cccnc3)C(N)=O)NC(=O)[C@](C)(C(C)C)NC(=O)[C@H](CC3CC3)NC(=O)[C@H](Cc3ccc(C)cc3)NC(=O)[C@H](CCC(=O)N2)NC(=O)[C@H](CCC(N)=O)NC(=O)[C@H](Cc2c[nH]c3ccccc23)NC(=O)[C@H](C(C)C)NC1=O [Compound 23, K(1c)(6c)^†IVWQE(6c)[F(4-Me)][Cyclopropyl-Ala][2-Me-Val]E(1c)G[{d}3-(3-Pyridyl)-Ala]-[NH2]] | 111% | 89 nM | –
Cc1ccc(C[C@@H]2NC(=O)[C@@H]3CCC(=O)N[C@@H](CCCCNC(=O)[C@@H](NC(=O)CCCCCc4cccnc4)CCNC(=O)[C@](C)(CC(C)C)NC(=O)[C@H](Cc4ccc5ccccc5c4)NC2=O)C(=O)N[C@@H]([C@@H](C)O)C(=O)N[C@@H](C(C)C)C(=O)N[C@@H](Cc2c[nH]c4ccccc24)C(=O)N[C@@H](CCC(N)=O)C(=O)N3)cc1 [Compound 25, K(1c)(6c)^†TVWQE(6c)[Y(2-aminoethoxy)][2-Nal][2-Me-Leu][iso-Dab](1c)^‡-[6-(3-pyridyl)hexanoyl]] (KTVWQE[Phe(4-Me)][2Nal][αMeL]; linker 1-C via X23; lactam N-6) | – | – | 91%
CC[C@H](C)[C@@H]1NC(=O)[C@@H]2CCCCNC(=O)CC[C@@H](C(=O)NCCc3cccnc3)NC(=O)[C@](C)(C(C)C)NC(=O)[C@H](Cc3ccc4ccccc4c3)NC(=O)[C@H](Cc3ccc(OCCN)cc3)NC(=O)[C@@H](CCC(=O)N2)NC(=O)[C@H](CCC(N)=O)NC(=O)[C@H](Cc2c[nH]c3ccccc23)NC(=O)[C@H](C(C)C)NC1=O [Compound 27, K(1c)(6c)^†VWQ[{d}E](6c)[Y(2-aminoethoxy)][2-Nal][2-Me-Val]E(1c)-[NH-2-(pyridin-3-yl)ethyl]] | 102% | 110 nM | –
CC[C@H](C)[C@@H]1NC(=O)[C@@H]2CCCCNC(=O)CC[C@@H](C(=O)NCCCCc3cccnc3)NC(=O)[C@](C)(C(C)C)NC(=O)[C@H](Cc3ccc4ccccc4c3)NC(=O)[C@H](Cc3ccc(OCCN)cc3)NC(=O)[C@H](CCC(=O)N2)NC(=O)[C@H](CCC(N)=O)NC(=O)[C@H](Cc2c[nH]c3ccccc23)NC(=O)[C@H](C(C)C)NC1=O [Compound 28, K(1c)(6c)^†IVWQE(6c)[Y(2-aminoethoxy)][2-Nal][2-Me-Val]E(1c)-[NH-4-(pyridin-3-yl)butanyl]] | 97% | 200 nM | –
CC[C@H](C)[C@@H]1NC(=O)[C@@H]2CCCCNC(=O)CC[C@@H](C(=O)NCCCCCCc3cccnc3)NC(=O)[C@](C)(C(C)C)NC(=O)[C@H](Cc3ccc4ccccc4c3)NC(=O)[C@H](Cc3ccc(OCCN)cc3)NC(=O)[C@H](CCC(=O)N2)NC(=O)[C@H](CCC(N)=O)NC(=O)[C@H](Cc2c[nH]c3ccccc23)NC(=O)[C@H](C(C)C)NC1=O [Compound 29, K(1c)(6c)^†IVWQE(6c)[Y(2-aminoethoxy)][2-Nal][2-Me-Val]E(1c)-[NH-6-(pyridin-3-yl)hexanyl]] | – | 480 nM | 95%
CC(C)C[C@]1(C)NC(=O)[C@H](Cc2ccc3ccccc3c2)NC(=O)[C@H](Cc2ccc(OCCN)cc2)NC(=O)[C@@H]2CCC(=O)N[C@@H](CCCCNC(=O)CC[C@@H](C(=O)NCCCCc3cccnc3)NC1=O)C(=O)N[C@@H](CO)C(=O)N[C@@H](C(C)C)C(=O)N[C@@H](Cc1c[nH]c3ccccc13)C(=O)N[C@@H](CCC(N)=O)C(=O)N2 [Compound 30, K(1c)(6c)^†SVWQE(6c)[Y(2-aminoethoxy)][2-Nal][2-Me-Leu]E(1c)-[NH-4-(pyridin-3-yl)butanyl]] | 101% | 20 nM | –
CC(C)[C@@H]1NC(=O)[C@H](CO)NC(=O)[C@@H]2CCCCNC(=O)CC[C@@H](C(=O)NCCCCc3cccnc3)NC(=O)CNC(=O)[C@H](Cc3ccc4ccccc4c3)NC(=O)[C@H](Cc3ccc(OCCN)cc3)NC(=O)[C@H](CCC(=O)N2)NC(=O)[C@H](CCC(N)=O)NC(=O)[C@H](Cc2c[nH]c3ccccc23)NC1=O [Compound 31, K(1c)(6c)^†SVWQE(6c)[Y(2-aminoethoxy)][2-Nal]GE(1c)-[NH-4-(pyridin-3-yl)butanyl]] (KSVWQE[AEF][2Nal]GE-{NH(4-(3-pyridyl)butyl)}; lactam 1-10, N-6) | 98% | – | –
CCCOc1ccc(C[C@@H]2NC(=O)[C@@H]3CCC(=O)N[C@@H](CCCCNC(=O)CC[C@@H](C(=O)NCCCCc4cccnc4)NC(=O)[C@](C)(CC(C)C)NC(=O)[C@H](Cc4ccc5ccccc5c4)NC2=O)C(=O)N[C@@H]([C@@H](C)CC)C(=O)N[C@@H](C(C)C)C(=O)N[C@@H](Cc2c[nH]c4ccccc24)C(=O)N[C@@H](CCC(N)=O)C(=O)N3)cc1 [Compound 32, K(1c)(6c)^†IVWQE(6c)[Y(nPr)][2-Nal][2-Me-Leu]E(1c)-[NH-4-(pyridin-3-yl)butanyl]] | – | 320 nM | 99%
